Measurements taken from US20260158009A1 (GENZYME CORPORATION, priority 2023, published 2026).

Experiments:
[1] = target: T1, hRIPK1 (aa 1-375) fusion protein (Homo sapiens, UniProt Q13546); assay: ADP-Glo kinase assay: catalytic activity of RIPK1 (autophosphorylation, conversion of ATP to ADP); format: biochemical
T1 construct: hRIPK1 (aa 1-375) fusion protein
T1 sequence (Q13546 1-375): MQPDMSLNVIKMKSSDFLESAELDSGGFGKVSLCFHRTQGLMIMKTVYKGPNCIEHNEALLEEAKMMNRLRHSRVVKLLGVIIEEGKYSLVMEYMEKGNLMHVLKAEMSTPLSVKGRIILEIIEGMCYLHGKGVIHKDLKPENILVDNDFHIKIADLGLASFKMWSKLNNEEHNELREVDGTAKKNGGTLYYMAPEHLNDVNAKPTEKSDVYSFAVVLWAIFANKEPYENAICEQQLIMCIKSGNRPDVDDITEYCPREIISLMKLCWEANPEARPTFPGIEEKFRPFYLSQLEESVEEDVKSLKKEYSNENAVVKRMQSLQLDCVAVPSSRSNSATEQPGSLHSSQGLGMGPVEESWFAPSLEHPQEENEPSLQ
Method: The catalytic activity of RIPK1 was measured by monitoring the conversion of Adenosine triphosphate (ATP) to Adenosine diphosphate (ADP) due to autophosphorylation using an ADP-Glo kinase kit (Promega, catalog no. V9104).
In detail, 2 μl recombinantly produced hRIPK1 (aa 1-375) fusion protein (end concentration 3.6 μg/ml) and 2 μl compound (end concentration 33300-1.69 nM; DMSO end concentration 1%) were incubated for 30 minutes at room temperature and then 2 μl ATP (ADP Glo kit, end concentration 50 μM) were added. After another 240 minutes incubation at room temperature, 5 μl Promega ADP-Glo reagent I was added to quench the reaction and deplete unconsumed ATP. After an incubation period of 30 minutes, 10 μl Promega ADP-Glo detection reagent II was added resulting in conversion of ADP to ATP, which generates a light-reaction between luciferase and luciferin. Luminescence was quantified after 30 minutes with a Pherastar FS (BMG LABTECH, Ortenberg).
The adjustment was obtained by nonlinear regression using the Levenberg Marquardt algorithm.

[2] = system: U937 cells; assay: Cellular assay in U937 cells: activity of RIPK1 inhibitors on TNFα/zVAD.fmk-induced cell death (necroptosis), CellTiter 96 AQueous (MTS) readout; format: cell-based; conditions: Homo sapiens, U-937
Description: Upon TNF-Receptor I ligation, Ser/Thr kinase RIPK1 is recruited to a transient receptor complex 1. Upon modification of RIPK1 which promotes activation of RIPK1, complex IIb can form, that involves recruitment of RIPK3 and MLKL (mixed lineage-kinase domain-like protein) which then translocates from the cytosol to the plasma membrane to execute cell death (Cai, Z. et al, Nat. Cell Biol. (2014) 16:55-65).
Cell death was quantified in 96 well plates by determination of the amount of live cell using a CellTiter 96 AQueous reagent (Promega), a calorimetric method to measure the number of live cells by reducing tetrazolium compound [3-(4,5-dimethylthiazol-2-yl)-5-(3-carboxymethoxyphenyl)-2-(4-sulfophenyl)-2H-tetrazolium, inner salt; MTS] into formazan. Absorbance of formazan was read at 490 nm. The inhibitory activity of the test compound was quantified in a concentration response curve (CRC) experiment.
Compounds were obtained as 10 mM stock solutions and were diluted 1 to 10 volumes with DMSO to yield a 1 mM solution. From this solution 2 μl were diluted with 998 μl growth medium. 100 μl of 2 μM compound solution was further diluted sequentially with a dilution factor of 2.5 by adding 150 μl growth medium. A total of 10 concentrations were tested ranging from 10 μM to 0.26 nM or from 1 μM to 0.07 nM.
U937 cells were cultured in RPMI1640 Glutamax and 10% heat inactivated FBS. 50 μl cell suspension containing 1×10^6 cells/ml supplemented with 50 μM zVAD.fmk (Benzyloxycarbonyl-Val-Ala-Asp (OMe) fluoromethylketone) and 100 ng/ml recombinant human TNF[…] were dispensed in each well of a 96-well plate. 50 μl of compound dilutions (described in Cellular assay in U937 cells) were added and the cell suspension incubated overnight (18 to 24 hrs) at 37° C., 5% CO2 in a humidified atmosphere (95% rH). High (no compound) and low control (no TNF[…], zVAD.fmk) were tested with 7 replicates; all compound concentrations were tested in duplicates on each experimental plate.
CellTiter 96 Aqueous reagent was mixed (100 μl PMS (phenazine methosulfate) solution/2 ml MTS (3-(4,5-[…])-5-(3-carboxymethoxyphenyl)-2-(4-sulfophenyl)-2H-tetrazolium, inner salt) solution) and 20 μl were added per well. After 4 hrs incubation at 37° C. (5% CO2 95% rH) optical density was measured at 490 nm on a microplate reader (Tecan Infinite M1000).
The % inhibition is expressed as percentage of the maximal inhibition value obtained in the absence of TNFα/zVAD.fmc.

| SMILES | IC50 [1] [nM] | IC50 [2] [nM] |
| --- | --- | --- |
| Cc1ccc([C@@H]2CCON2C(=O)[C@H]2CC[C@H](Cc3cc(F)c4nc(C)cn4c3)CC2)cn1 [compound 351, trans-[4-[(8-fluoro-2-methylimidazo[1,2-a]pyridin-6-yl)methyl]cyclohexyl]-[(3S)-3-(6-methylpyridin-3-yl)-1,2-oxazolidin-2-yl]methanone] | 210 | 149 |
| N#Cc1cc(F)cc([C@@H]2CCON2C(=O)[C@H]2CC[C@H](Cc3cncnc3)CC2)c1 [compound 247, trans-3-fluoro-5-[(3S)-2-[4-(pyrimidin-5-ylmethyl)cyclohexanecarbonyl]isoxazolidin-3-yl]benzonitrile] | 22 | 136 |
| Cc1cn2ncc(C[C@H]3CC[C@H](C(=O)N4OCC[C@H]4c4csc(C)n4)CC3)cc2n1 [compound 371, trans-[4-(2-Methyl-imidazo[1,2-b]pyridazin-7-ylmethyl)-cyclohexyl]-[(S)-3-(2-methyl-thiazol-4-yl)-isoxazolidin-2-yl]-methanone] | 65 | 147 |
| COc1cc(C[C@H]2CC[C@H](C(=O)N3OCC[C@H]3c3cncc(F)c3)CC2)cn2nc(C)nc12 [compound 345, trans-[(3S)-3-(5-fluoropyridin-3-yl)-1,2-oxazolidin-2-yl]-[4-[(8-methoxy-2-methyl-[1,2,4]triazolo[1,5-a]pyridin-6-yl)methyl]cyclohexyl]methanone] | 26 | 8 |
| Cc1nc([C@@H]2CCON2C(=O)[C@H]2CC[C@H](Cc3ccc(C4(O)COC4)cc3)CC2)cs1 [compound 369, trans-{4-[4-(3-Hydroxy-oxetan-3-yl)-benzyl]-cyclohexyl}-[(S)-3-(2-methyl-thiazol-4-yl)-isoxazolidin-2-yl]-methanone] | 26 | 24 |
| COc1cncc([C@@H]2CCON2C(=O)[C@H]2CC[C@H](Cn3ccc4cc(C(N)=O)ccc43)CC2)n1 [compound 253, trans-1-[[4-[(3S)-3-(6-methoxypyrazin-2-yl)isoxazolidine-2-carbonyl]cyclohexyl]methyl]indole-5-carboxamide] | 18 | 175 |
| N#Cc1cncc([C@@H]2CCON2C(=O)[C@H]2CC[C@H](Cn3ccc4ncc(C#N)cc43)CC2)c1 [compound 108, trans-1-((4-((S)-3-(5-cyanopyridin-3-yl)isoxazolidine-2-carbonyl)cyclohexyl)methyl)-1H-pyrrolo[3,2-b]pyridine-6-carbonitrile] | 27 | 18 |
| N#Cc1cc(F)cc([C@@H]2CCON2C(=O)[C@H]2CC[C@H](Cn3ccc4cc(F)ccc43)CC2)c1 [compound 95, trans-3-fluoro-5-((S)-2-(4-((5-fluoro-1H-indol-1-yl)methyl)cyclohexane-1-carbonyl)isoxazolidin-3-yl)benzonitrile] | 22 | 4 |
| O=C1NCc2c(F)cc(C[C@H]3CC[C@H](C(=O)N4OCC[C@H]4c4ccc(F)cc4)CC3)cc21 [compound 212, trans-4-fluoro-6-[[4-[(3S)-3-(4-fluorophenyl)isoxazolidine-2-carbonyl]cyclohexyl]methyl]isoindolin-1-one] | 23 | 10 |
| N#Cc1ccc2cnn(C[C@H]3CC[C@H](C(=O)N4OCC[C@H]4c4ccccn4)CC3)c2c1 [compound 215, trans-1-[[4-[(3S)-3-(2-pyridyl)isoxazolidine-2-carbonyl]cyclohexyl]methyl]indazole-6-carbonitrile] | 20 | 7 |
| Cc1c2ccccc2nn1C[C@H]1CC[C@H](C(=O)N2OCC[C@H]2c2cc(F)cc(F)c2)CC1 [compound 62, trans-((S)-3-(3,5-difluorophenyl)isoxazolidin-2-yl)(4-((3-methyl-2H-indazol-2-yl)methyl)cyclohexyl)methanone] | 20 | 22 |
| Cc1nc2cc(C[C@H]3CC[C@H](C(=O)N4OCC[C@H]4c4cnccn4)CC3)ccn2n1 [compound 374, trans-[4-(2-Methyl-[1,2,4]triazolo[1,5-a]pyridin-7-ylmethyl)-cyclohexyl]-((S)-3-pyrazin-2-yl-isoxazolidin-2-yl)-methanone] | 36 | 55 |
| O=C1NCc2c(F)cc(C[C@H]3CC[C@H](C(=O)N4OCC[C@H]4c4cnccn4)CC3)cc21 [compound 213, trans-4-fluoro-6-[[4-[(3S)-3-pyrazin-2-ylisoxazolidine-2-carbonyl]cyclohexyl]methyl]isoindolin-1-one] | 19 | 16 |

Continued by falling IC50 [1], values first:

| IC50 [1] [nM] | SMILES | IC50 [2] [nM] |
| --- | --- | --- |
| 18 | N#Cc1cc(F)cc([C@@H]2CCON2C(=O)[C@H]2CC[C@H](Cn3ncc4cc(F)c(C#N)cc43)CC2)c1 [compound 87, trans-1-((4-((S)-3-(3-cyano-5-fluorophenyl)isoxazolidine-2-carbonyl)cyclohexyl)methyl)-5-fluoro-1H-indazole-6-carbonitrile] | 3 |
| 18 | N#Cc1cc(F)cc([C@@H]2CCON2C(=O)[C@H]2CC[C@H](Cn3ccc4ccc(C(N)=O)cc43)CC2)c1 [compound 104, trans-1-((4-((S)-3-(3-cyano-5-fluorophenyl)isoxazolidine-2-carbonyl)cyclohexyl)methyl)-1H-indole-6-carboxamide] | 5 |
| 15 | Cc1ncc(C[C@H]2CC[C@H](C(=O)N3OCC[C@H]3c3ccc(F)c(F)c3)CC2)cn1 [compound 309, trans-[(3S)-3-(3,4-difluorophenyl)isoxazolidin-2-yl]-[4-[(2-methylpyrimidin-5-yl)methyl]cyclohexyl]methanone] | 50 |
| 14 | Cc1ncc(C[C@H]2CC[C@H](C(=O)N3OCC[C@H]3c3cc(F)cc(F)c3)CC2)cn1 [compound 264, trans-[(3S)-3-(3,5-difluorophenyl)isoxazolidin-2-yl]-[4-[(2-methylpyrimidin-5-yl)methyl]cyclohexyl]methanone] | 16 |
| 12 | Cc1cn2nc(C[C@H]3CC[C@H](C(=O)N4OCC[C@H]4c4cc(F)cc(F)c4)CC3)cc(C)c2n1 [compound 291, trans-[(3S)-3-(3,5-difluorophenyl)isoxazolidin-2-yl]-[4-[(2,8-dimethylimidazo[1,2-b]pyridazin-6-yl)methyl]cyclohexyl]methanone] | 1 |
| 9 | Cc1ccc(CC23CCC(C(=O)N4OCC[C@H]4c4cc(F)cc(C#N)c4)(CC2)CC3)cc1C(N)=O [compound 274, 5-[[4-[(3S)-3-(3-cyano-5-fluoro-phenyl)isoxazolidine-2-carbonyl]-1-bicyclo[2.2.2]octanyl]methyl]-2-methyl-benzamide] | 40 |
| 8 | Cc1ccc(C[C@H]2CC[C@H](C(=O)N3OCC[C@H]3c3cc(F)cc(C#N)c3)CC2)cc1C(N)=O [compound 133, trans-5-[[4-[(3S)-3-(3-cyano-5-fluoro-phenyl)isoxazolidine-2-carbonyl]cyclohexyl]methyl]-2-methyl-benzamide] | 8 |
